Patent US10632064B2, “Topical regional neuro affective therapy with cannabinoid combination products” (Afgin Pharma, LLC, priority 2015, dated 2020)
Where “and” joins values, the source holds several entries; their conditions need not be identical. Equal entries are not always repeated. Entries after “also recorded” stand apart in the source; their conditions may differ.

Tests used:
human patients = test: Example 5: topical cannabidiol (CBD) formulation on the back of the neck, 40 mg dose, patient cases (Table 1); type: in vivo
Description: The following patients were treated with a topical cannabidiol (CBD) formulation administered on the back of the neck on human patients at a 40 mg dose, as more specifically described below in Table 1: […]

[1] = tested on: human patient with episodic severe post-operative neuralgic head pain; test: Example 6: topical cannabidiol 40 mg at the BONATH, post-operative neuralgic head pain, EEG; type: in vivo
Description: The efficacy of a topical cannabidiol formulation was studied in a human patient (s/p resection right clival meningioma) suffering from episodic severe post-operative neuralgic head pain suffering from severe right-sided neuralgic head pain every 15-20 seconds. The patient was treated with cannabidiol 40 mg applied to the BONATH in a topical formulation. There was attenuation of associated focal EEG abnormalities. […] The neuralgic head pain was less severe by about 50% (frequency decreased to every 2-5 minutes).

[2] = tested on: patients having back/spine pain, fibromyalgia, and/or extremity pain; test: Example 10: topical CBD (Table 4); type: in vivo, human
Description: (§1) In Example 10, 16 patients having back/spine pain, fibromyalgia, and/or extremity pain were treated with topical CBD at the back of the neck. The treatment comprised a dose of either 15 mg or 30 mg cannabinoid drugs, with the majority being CBD, the source of the CBD being CBD oil commercially available from CannaVest.

[3] = tested on: patients having Parkinson's disease, tremors, or movement disorders; test: Example 11: topical CBD at the back of the neck (Table 5); type: in vivo, human
Description: as §1, with “11, 6” for “10, 16”, “Parkinson's disease, tremors, or movement disorders” for “back/spine pain, fibromyalgia, and/or extremity pain”

[4] = tested on: patients having acute and chronic neurological and psychiatric conditions; test: Example 12: topical CBD from crystalline powder (Table 6); type: in vivo, human
Description: In Example 12, 19 patients having acute and chronic neurological and psychiatric conditions were treated with topical CBD at the back of the neck. The treatment comprised a dose of either 15 mg or 30 mg cannabinoid drugs, with the majority being CBD, the source of the CBD being CBD crystalline powder oil commercially available from CannaVest.

[5] = tested on: person, cerebellar posterior fossa cyst, generalized seizure; test: Example 13: 2% CBD cream to the nuchal region, absence seizures, EEG; type: in vivo, human
Description: In Example 13, person suffering from a cerebellar posterior fossa cyst, generalized seizure manifesting as standing and staring and unresponsive was treating in accordance with the present invention. FIG. 2 is an EEG showing a baseline EEG of the patient of Example 13. […] Previously, ethosuximide had been recommended for treatment, but the parents were reluctant to have the patient on a systemic […] therapy in view of the potential side effects. The patient was treated with a 2% CBD cream to the nuchal (back of the neck) region twice a day. After two weeks, the dosage regimen was changed to one application per day.

[6] = tested on: patient with head injury and seizures; test: Example 14: 1 g of 1.6% CBD cream nuchal twice a day, intractable complex partial seizures, EEG; type: in vivo, human
Description: They presented with seizures (intractable complex partial seizures with secondary generalization; episodes of encephalopathy for 24 hours thereafter). […] They had had 5 craniotomies, and previously had been treated with Dilantin, Carbatrol, Keppra, Lamictal, and Depakote. Their current medications were Vimpat and Onfi (clobazam).
The patient was treated with 1 g of 1.6% CBD cream to the nuchal (back of the neck) region twice a day. […] The patient remained on Vimpat, and their dose of Onfi was reduced by half.

[7] = tested on: patient with autism and generalized seizures; test: Example 15: 1 g of 2% CBD cream nuchal, autism and generalized seizures, EEG; type: in vivo, human
Description: In Example 15, a patient presented with autism and generalized seizures. They were uncontrolled on Lamictal, Depakote, Keppra, Zonegran, ethosuximide/Zarontin. When examined, they presented with seizures about every 2 weeks on Banzel, Onfi, and Topamax as antiepileptics. FIG. 7 is a baseline EEG taken at the initial examination, showing seizure focus, showing generalized slowing and disorganization with left frontal sharp waves and paroxysms of sharp waves and spikes.
The patient was treated with 1 g of 2% CBD cream to the nuchal (back of the neck). […] They continued therapy with the topical CBD cream to the nuchal region twice daily, and the Topamax was tapered off, resulting in added overall improved encephalopathy.

[8] = tested on: patient with atonic seizures; test: Example 17: 1 g of 1.6% CBD cream nuchal, atonic seizures, EEG; type: in vivo, human
Description: In Example 17, a patient presented with atonic seizures. The patient would suddenly freeze and fall down (e.g., riding a bike, at school, etc.). FIG. 11 is a baseline EEG taken at the initial examination, showing cortical irritability on the left central region c/w potential for seizures.
The patient was treated with 1 g of 1.6% CBD cream to the nuchal (back of the neck). […] FIG. 13 is a brain MRI of the patient showing a left thalamic hamartoma, a benign developmental process, likely irritating the brain and causing their seizures.

[9] = tested on: patients having a variety of conditions; test: Example 18: topical CBD cream compounded from crystalline powder (Table 7); type: in vivo, human; conditions: 1% topical CBD; single patients
Description: The CBD was compounded in crystalline powder form rather than in CBD-oil form into the topical cream. The doses were 7.5 mg (0.75% topical CBD cream), 10 mg (1% topical CBD cream), 15 mg (1.5% topical CBD cream) or 20 mg (2% topical CBD cream).

[10] = tested on: acute paranoid schizophrenia; conditions: cited from earlier work
[11] = cannabidiol 40 mg topical at BONATH

C=C(C)[C@@H]1CCC(C)=C[C@H]1c1c(O)cc(CCCCC)cc1O [CBD, cannabidiol]
time after topical CBD at which the effect was seen (human patients; 40 mg topical CBD on back of neck, single patients): 10-15 minutes after nuchal and 15 minutes and within 15 minutes. and 10 minutes after topical CBD, and hand function within 15 minutes; and 20 minutes after 40 mg topical and 5 minutes after 40 mg topical and 5 minutes and 10-15 minutes after topical CBD,
anxiety level after nuchal topical CBD (human patients; 40 mg, person in panic attack, before 7-8 of 10): anxiety from 7-8 of 10 to 4 of 10
time without freezing episodes after one dose (human patients; one dose of 40 mg topical CBD, Parkinson's patient with 10-12 freezing episodes per day): over 24 hours; also more
EEG after nuchal administration [1, 11]: attenuation of the right temporal waves to a more normal state
duration of EEG improvement and clinical benefit [1, 11]: The EEG improvement lasted several minutes, but the clinical benefit lasted several hours
neuralgic head pain less severe [1, 11]: about 50%
frequency of neuralgic head pain after treatment (every ...) ([1]; cannabidiol 40 mg topical, before every 15-20 seconds): 2 to 5 min
result after topical CBD, in words (Table 4) ([2]; 15 mg or 30 mg cannabinoid drugs (CBD oil) topical, one patient per entry): Right hand symptoms improved after topical; also recorded: improved strength; also recorded: relief better than Tramadol; also recorded: improved mobility and back pain relief; also recorded: back of neck and back 3×/day; pain relief
pain reduction/relief ([2]; after topical CBD, single patients): pain diminished 40% with improved and 30-40% and 30% (2×) and 50% and 60% reduction in chronic pain within a few
left lower extremity pain after topical CBD ([2]; person, before 6 of 10, after 10 minutes): 2 /10
time after topical CBD at which the effect was seen ([2]; single patients): 5 minutes (2×) and 10 minutes and within 10 minutes. and Within 15 minutes of topical CBD application and ≤ 15 minutes and ≤ 10 minutes and within 2 minutes of application.
result after topical CBD, in words (Table 5) ([3]; 15 mg or 30 mg cannabinoid drugs (CBD oil) at back of neck, one patient per entry): resolved festination/small steppage; also recorded: Facial twitching improved after
time after topical CBD at which the effect was seen ([3]; single patients): 15 minutes after one application and 10 minutes and 10 minutes after topical CBD appli- and 5 minutes; now using 3×/ day.
result in words (Table 6) ([4]; 0.75% topical CBD to neck and 1% to back): 1% to back with patient feeling more alert
time after application at which the effect was seen ([4]; 1% topical CBD to neck and back): ≤ 1 min
result in words (Table 6) ([4]; 1% topical CBD, one patient per entry): became more alert and spontaneous; also recorded: spasticity improved with better movement of; also recorded: improved pain within three minutes. Stated; also recorded: worked better than oil-based CBD they had; also recorded: focus, clearer thinking, and reduced anxiety
pain decrease ([4]; 1% topical CBD, single patients): 50% and pain 20% within a few minutes. and additional 30% from prior baseline.
result in words (Table 6) ([4]; 1.5% topical (powdered) CBD cream): 1.5% topical CBD reduced neck tension and relieved neuropathic pain. Had been using and relieved anxiety and improved demeanor.
result in words (Table 6) ([4]; 2% topical CBD cream): relieved back and lower extremity; also recorded: relieved neck pain and tension from
neck pain and tension level after treatment ([4]; 2% topical CBD cream to back of neck, from 8 of 10, in few minutes): 8 of 10 to 2 in few minutes.
clinical findings at the two week check-up ([5]; 2% CBD cream to nuchal region twice a day): No seizures were noted; also recorded: no long bed wetting; also recorded: reading levels had increased two levels
EEG post-treatment ([5]; 5 minutes after the start of therapy (FIG. 3)): attenuated seizure focus
EEG post-treatment ([5]; 8 minutes after the start of therapy (FIG. 4)): further attenuation of seizure focus
seizure status on treatment ([6]; 16 mg nuchal topical CBD twice daily with Vimpat and Onfi, one year follow-up and 20 months): the patient was seizure-free; also recorded: remained seizure-free since June 2014
follow-up EEG post-treatment ([6]; one year follow-up (FIG. 6)): right fast activity and sharp waves attenuated; also recorded: no longer showing seizure potential
clinical result ([7]; 2% CBD cream nuchal, continued twice daily): more alert and interactive; also recorded: Seizure frequency also was reduced
EEG after CBD application ([7]; within one minute of application of 1 g of 2% CBD cream (FIG. 8)): improvement in the EEG background without previous burst activity; also recorded: right fast activity and sharp waves attenuated
EEG after CBD dose ([8]; 10 minutes after application of 1 g of 1.6% CBD cream (FIG. 12)): attenuated seizure focus
seizure status on treatment ([8]; topical CBD nuchal since October 2015, only medication): seizure-free since initiating topical CBD therapy
pain decrease [9]: 50%
psychotic symptoms ([10]; after 2 weeks): significant decrease in psychotic symptoms
side effects ([10]; compared with amisulpride): significantly fewer side effects
